The values below come from patent US20240269145A1, “USE OF INDOLE COMPOUND AS INHIBITORS OF FERROPTOSIS” (MITOIMMUNE THERAPEUTICS INC., priority 2023, published 2024).

Where only a bound is given, the exact number is not on record here.

Assay in all cases: Cell death protection, LDH release after RSL3
Assay type in all cases: cell-based

For one assay, the system named is NIH/3T3. Particulars: Mus musculus, NIH3T3, NIH/3T3, RSL3 3 μM, 24 hours. On the procedure:
(§1) To confirm the protective effect on cardiac cells, adrenal medulla cells, renal fibroblasts, retinal epithelial cells, lung epithelial cells, renal proximal tubule epithelial cells, hippocampal neurons, and fibroblasts, 4×10^3 to 1.2×10^4 cells of each cell type were dispensed into 96-well plates and cultured for 18 to 24 hours. Each well was treated with the example compound, which was diluted so that the final concentration became 0.001, 0.003, 0.01, 0.03, 0.1, 0.3, 1, 3, and 10 μM, and culture was performed for 15 to 20 minutes. […] To confirm the cell protecting effect of the example compounds, a cytotoxicity LDH assay kit [Dojindo; CK12] was used to measure the level of extracellular secretion of lactate dehydrogenase (LDH). Briefly, at the time point when the 24-hour treatment of each cell type with RSL3 ended, 70 μL of each supernatant from cell culture medium was taken and transferred to a new 96-well plate. After adding 70 μL/well (the same amount as the sample) of the assay buffer included in the kit, the resulting mixture was wrapped with foil and allowed to react at room temperature for 15 to 20 minutes. After observing the color change of the sample, 35 μL/well of a stop solution was added, and the absorbance value at 490 nm was measured using an iD3 spectrophotometer to calculate the EC50 value.
(§2) Table 3. Effect of protecting cardiac cells, adrenal medulla cells, renal fibroblasts, retinal epithelial cells, lung epithelial cells, renal proximal tubule epithelial cells, hippocampal neurons, and fibroblasts against cell death induced by RSL3.

The test system of another assay is PC-12. Particulars: Rattus norvegicus, PC-12, RSL3 0.3 μM, 24 hours. Here is the method: as §1, §2
In a further assay the test system is HT-22. Particulars: Mus musculus, HT-22, RSL3 0.3 μM, 24 hours. On the procedure:
as §1, §2

The subject of the next assay is HK-2. Particulars: Homo sapiens, HK-2, RSL3 0.3 μM, 24 hours. Here is the method: as §1, §2
The subject of the next assay is ARPE-19. Particulars: Homo sapiens, ARPE-19, RSL3 0.3 μM, 24 hours. Here is the method:
as §1, §2

A further assay concerns NRK-49F. Particulars: Rattus norvegicus, RSL3 3 μM, 24 hours. On the procedure: as §1, §2
A further assay relates to H9C2. Particulars: Rattus norvegicus, H9C2, RSL3 0.5 μM, 24 hours. On the procedure: as §1, §2
For the next assay, the system named is MLE-12. Particulars: MLE12, MLE-12, RSL3 1 μM, 24 hours. On the procedure:
as §1, §2

As usually defined, the EC50 is the midpoint of the concentration-response curve. Higher therefore signals lower potency in that assay. `CCOC(=O)c1cc(NC2CCCC2)c2[nH]c(-c3ccccc3)cc2c1` [Example 2, ethyl 7-(cyclopentylamino)-2-phenyl-1H-indole-5-carboxylate]: the concentration giving a half-maximal response (EC50) in the assay on NIH/3T3, in the assay with PC-12, with HT-22, in the assay on HK-2, in the assay on ARPE-19 and in the assay on NRK-49F was not above 0.03 µM in each case. Besides, the 50% effective concentration (EC50) in the assay on H9C2 and in the assay on MLE-12 was not above 0.03 µM throughout.
In the case of `O=S1(=O)CCN(Cc2cc(NCC3CCOCC3)c3[nH]c(-c4ccccc4)cc3c2)CC1` [Example 6, 4-((2-phenyl-7-(((tetrahydro-2H-pyran-4-yl)methyl)amino)-1H-indol-5-yl)methyl)thiomorpholine 1,1-dioxide], the half-maximal effective concentration (EC50) is 0.03 to 0.1 µM in the assay with NIH/3T3; 0.03 to 0.1 µM with PC-12; 0.03 to 0.1 µM with HT-22; not above 0.03 µM in the assay on HK-2; not above 0.03 µM with ARPE-19; not above 0.03 µM with NRK-49F. Further, the EC50 with H9C2 and in the assay on MLE-12 was not above 0.03 µM each time.
Regarding `CS(=O)(=O)N1CCC(Nc2cc(CN3CCS(=O)(=O)CC3)cc3cc(-c4ccccc4)[nH]c23)CC1` [Example 22, 4-((7-((1-(methylsulfonyl)piperidin-4-yl)amino)-2-phenyl-1H-indole-5-yl)methyl)thiomorpholine 1,1-dioxide], the EC50 was 0.03 to 0.1 µM in the assay on NIH/3T3; 0.03 to 0.1 µM with PC-12; 0.03 to 0.1 µM with HT-22; 0.03 to 0.1 µM in the assay on HK-2; not above 0.03 µM in the assay with ARPE-19; 0.03 to 0.1 µM in the assay with NRK-49F. For the same compound, the figures for the EC50 with H9C2 and in the assay on MLE-12 were 0.03 to 0.1 µM and not above 0.03 µM, respectively.
Take `Cc1cc(NC2CCCC2)c2[nH]c(-c3ccccc3)cc2c1` [Example 33, N-cyclopentyl-5-methyl-2-phenyl-1H-indole-7-amine]: the 50% effective concentration (EC50) in the assay on NIH/3T3 was not above 0.03 µM; in the assay with PC-12, 0.03 to 0.1 µM; in the assay with HT-22 it was not above 0.03 µM; with HK-2, not above 0.03 µM; in the assay on ARPE-19 it was not above 0.03 µM; in the assay with NRK-49F, not above 0.03 µM. Also, the half-maximal effective concentration (EC50) with H9C2 and in the assay with MLE-12 was not above 0.03 µM each time.
